Measurements from ChEMBL document CHEMBL4411307, “N,N'-diaryl-bishydrazones in a biphenyl platform: Broad spectrum antifungal agents” (Eur J Med Chem, 2019).
In brackets after ≈: the same amount, converted by molar mass. Activity calls are given as the source filed them. No cut-off for these calls is given here.

Key:
[1] = tested on: Listeria monocytogenes; assay: Antibacterial activity against Listeria monocytogenes; format: functional, organism-based
[2] = tested on: Staphylococcus aureus; assay: Antibacterial activity against methicillin-resistant Staphylococcus aureus; format: functional, organism-based
[3] = tested on: Enterococcus; assay: Antibacterial activity against vancomycin-resistant Enterococcus; format: functional, organism-based
[4] = tested on: Candida albicans; assay: Antifungal activity against fluconazole/ITC-resistant Candida albicans ATCC 10231 measured after 48 hrs by CLSI M27-A3 protocol based method; format: functional; details: ATCC 10231, 48 h
[5] = tested on: Candida albicans; assay: Antifungal activity against fluconazole/ITC-resistant Candida albicans ATCC 64124 measured after 48 hrs by CLSI M27-A3 protocol based method; format: functional; details: ATCC 64124, 48 h
[6] = tested on: Candida albicans; assay: Antifungal activity against fluconazole/ITC-susceptible Candida albicans ATCC MYA-2876 measured after 48 hrs by CLSI M27-A3 protocol based method; format: functional; details: ATCC MYA-2876, 48 h
[7] = tested on: Candida albicans; assay: Antifungal activity against fluconazole/ITC-resistant Candida albicans ATCC 90819 measured after 48 hrs by CLSI M27-A3 protocol based method; format: functional; details: ATCC 90819, 48 h
[8] = tested on: Candida albicans; assay: Antifungal activity against fluconazole/ITC-susceptible Candida albicans ATCC MYA-2310 measured after 48 hrs by CLSI M27-A3 protocol based method; format: functional; details: ATCC MYA-2310, 48 h
[9] = tested on: Candida albicans; assay: Antifungal activity against fluconazole/ITC-resistant Candida albicans ATCC MYA-1237 measured after 48 hrs by CLSI M27-A3 protocol based method; format: functional; details: ATCC MYA-1237, 48 h
[10] = tested on: Candida albicans; assay: Antifungal activity against fluconazole/ITC-resistant Candida albicans ATCC MYA-1003 measured after 48 hrs by CLSI M27-A3 protocol based method; format: functional; details: ATCC MYA-1003, 48 h
[11] = tested on: Nakaseomyces glabratus; assay: Antifungal activity against Candida glabrata ATCC 2001 measured after 48 hrs by CLSI M27-A3 protocol based method; format: functional; details: CBS 138, 48 h
[12] = tested on: Pichia kudriavzevii; assay: Antifungal activity against Candida krusei ATCC 6258 measured after 48 hrs by CLSI M27-A3 protocol based method; format: functional; details: ATCC 6258, 48 h
[13] = tested on: Candida parapsilosis; assay: Antifungal activity against Candida parapsilosis ATCC 22019 measured after 48 hrs by CLSI M27-A3 protocol based method; format: functional; details: Lodderomyces parapsilosis, ATCC 22019, 48 h
[14] = tested on: Aspergillus flavus; assay: Antifungal activity against Aspergillus flavus ATCC MYA-3631 measured after 48 hrs by CLSI M38-A2 protocol based method; format: functional; details: ATCC MYA-3631, 48 h
[15] = tested on: Aspergillus nidulans; assay: Antifungal activity against Aspergillus nidulans ATCC 38163 measured after 48 hrs by CLSI M38-A2 protocol based method; format: functional; details: ATCC 38163, 48 h
[16] = tested on: Aspergillus terreus; assay: Antifungal activity against Aspergillus terreus ATCC MYA-3633 measured after 48 hrs by CLSI M38-A2 protocol based method; format: functional; details: ATCC MYA-3633, 48 h
[17] = tested on: A549; assay: Cytotoxicity against human A549 cells after 24 hrs by resazurin based assay; format: cell-based; details: a549, 24 h
[18] = tested on: BEAS-2B; assay: Cytotoxicity against human BEAS2B cells after 24 hrs by resazurin based assay; format: cell-based
[19] = Selectivity index, ratio of CC50 for human A549 cells to MIC for fluconazole/ITC-resistant Candida albicans ATCC 10231; format: toxicity; details: read-out: Selectivity Index
[20] = Selectivity index, ratio of CC50 for human A549 cells to MIC for fluconazole/ITC-resistant Candida albicans ATCC 64124; format: toxicity; details: read-out: Selectivity Index
[21] = Selectivity index, ratio of CC50 for human A549 cells to MIC for fluconazole/ITC-susceptible Candida albicans ATCC MYA-2876; format: toxicity; details: read-out: Selectivity Index
[22] = Selectivity index, ratio of CC50 for human A549 cells to MIC for fluconazole/ITC-resistant Candida albicans ATCC 90819; format: toxicity; details: read-out: Selectivity Index
[23] = Selectivity index, ratio of CC50 for human A549 cells to MIC for fluconazole/ITC-susceptible Candida albicans ATCC MYA-2310; format: toxicity; details: read-out: Selectivity Index
[24] = Selectivity index, ratio of CC50 for human A549 cells to MIC for fluconazole/ITC-resistant Candida albicans ATCC MYA-1237; format: toxicity; details: read-out: Selectivity Index
[25] = Selectivity index, ratio of CC50 for human A549 cells to MIC for fluconazole/ITC-resistant Candida albicans ATCC MYA-1003; format: toxicity; details: read-out: Selectivity Index
[26] = Selectivity index, ratio of CC50 for human A549 cells to MIC for Candida glabrata ATCC 2001; format: toxicity; details: read-out: Selectivity Index
[27] = Selectivity index, ratio of CC50 for human A549 cells to MIC for Candida krusei ATCC 6258; format: toxicity; details: read-out: Selectivity Index
[28] = Selectivity index, ratio of CC50 for human A549 cells to MIC for Candida parapsilosis ATCC 22019; format: toxicity; details: read-out: Selectivity Index
[29] = Selectivity index, ratio of CC50 for human A549 cells to MIC for Aspergillus flavus ATCC MYA-3631; format: toxicity; details: read-out: Selectivity Index
[30] = Selectivity index, ratio of CC50 for human A549 cells to MIC for Aspergillus nidulans ATCC 38163; format: toxicity; details: read-out: Selectivity Index
[31] = Selectivity index, ratio of CC50 for human A549 cells to MIC for Aspergillus terreus ATCC MYA-3633; format: toxicity; details: read-out: Selectivity Index

| Compound | Activity [1] | Activity [2] | Activity [3] | MIC [4] [µg/mL] | MIC [5] [µg/mL] | MIC [6] [µg/mL] | MIC [7] [µg/mL] | MIC [8] [µg/mL] | MIC [9] [µg/mL] | MIC [10] [µg/mL] | MIC [11] [µg/mL] | MIC [12] [µg/mL] | MIC [13] [µg/mL] | MIC [14] [µg/mL] | MIC [15] [µg/mL] | MIC [16] [µg/mL] | other results |
| --- | --- | --- | --- | --- | --- | --- | --- | --- | --- | --- | --- | --- | --- | --- | --- | --- | --- |
| Fc1ccc(N/N=C/c2ccc(-c3ccc(/C=N/Nc4ccc(F)cc4F)cc3)cc2)c(F)c1 | inactive | inactive | inactive | 7.8 (≈ 16.9 µM) | > 31.3 | > 31.3 | 31.3 (≈ 67.7 µM) | > 31.3 | > 31.3 | > 31.3 | > 31.3 | > 31.3 | > 31.3 | > 31.3 | > 31.3 | > 31.3 | – |
| Fc1ccccc1N/N=C/c1ccc(-c2cccc(/C=N/Nc3ccccc3F)c2)cc1 | inactive | inactive | inactive | 7.8 (≈ 18.3 µM) | 7.8 (≈ 18.3 µM) | > 31.3 | 15.6 (≈ 36.6 µM) | 31.3 (≈ 73.4 µM) | > 31.3 | 7.8 (≈ 18.3 µM) | > 31.3 | 1.95 (≈ 4.57 µM) | 15.6 (≈ 36.6 µM) | 3.9 (≈ 9.14 µM) | 7.8 (≈ 18.3 µM) | > 31.3 | CC50 [17]: 16.4 µg/mL (≈ 38.5 µM); CC50 [18]: > 31 µg/mL; selectivity ratio [19]: 2.1; selectivity ratio [20]: 2.1; selectivity ratio [21]: 0.5; selectivity ratio [22]: 1.1; selectivity ratio [23]: 0.5; selectivity ratio [24]: 0.5; selectivity ratio [25]: 2.1; selectivity ratio [26]: 0.5; selectivity ratio [27]: 8.4; selectivity ratio [28]: 1.1; selectivity ratio [29]: > 4.2; selectivity ratio [30]: 2.1; selectivity ratio [31]: 0.5 |
| Brc1ccc(N/N=C/c2ccc(-c3ccc(/C=N/Nc4ccc(Br)cc4)cc3)cc2)cc1 | inactive | inactive | inactive | > 31.3 | > 31.3 | > 31.3 | > 31.3 | > 31.3 | > 31.3 | > 31.3 | > 31.3 | > 31.3 | 31.3 (≈ 57.1 µM) | > 31.3 | > 31.3 | > 31.3 | – |
